In US9487553B2, “Boranophosphate analogues of cyclic nucleotides” (BIOLOG LIFE SCIENCE INSTITUTE FORSCHUNGSLABOR UND …, priority 2011, dated 2016):
Values joined by “and” are separate entries in the source; they are usually repeats but may differ in a detail not shown here. Equal values may be shown once.

What was measured:
[1] = Degradation Example 2: oxidation with hydrogen peroxide, monitored by HPLC; type: physicochemical
Procedure: Thus, 0.05 μmol of the Rp-isomer of 8-(4-chlorophenylthio)adenosine-3′,5′-cyclic boranophosphate (Rp-8-pCPT-cAMPB, example 9), was treated stepwise with 5 μl portions of 30% aqueous hydrogen peroxide solution (Merck) every 30 min. The oxidation process was monitored by reversed phase HPLC (RP-18, 25 Vol.-% acetonitrile, 20 mM triethylammonium formate buffer, pH 6.1, 2 ml/min, UV 280 nm). As a control the corresponding cyclic nucleotide with phosphorothioate modification (Sp-8-pCPT-cAMPS, Biolog) was added. In summary, 15 μl peroxide, were applied.

PDE 1 from bovine heart = assay: Resistance towards phosphodiesterase: incubation with PDE 1 from bovine heart, HPLC; details: PDE 1, bovine heart
Procedure: For this purpose 0.1 μmol of Rp-8-bromoadenosine-3′,5′-cyclic boranophosphate (example 1) and Sp-8-bromoadenosine-3′,5′-cyclic boranophosphate […] dissolved in TRIS buffer pH 7.2 containing calcium chloride and calmodulin and incubated with PDE type I from bovine brain (Sigma-Aldrich) at 37° C. Activity of the enzyme was checked by hydrolysis of cyclic AMP. Stability was monitored by HPLC (RP-18, 11 Vol.-% propanol-2, 20 mM TEAF buffer, pH 6.8, 1 ml/min., UV 264 nm). […] This strategy of testing PDE performance was applied accordingly in degradation examples 10 and 11.
Thus, Rp-8-Br-cAMPB (example 1) and Sp-8-Br-cAMPS (Biolog, Bremen/Germany) were incubated with PDE 1 from bovine heart (Sigma-Aldrich) and monitored by HPLC as described above.
Rp-2′-O-Me-cAMPB (example 7) and Sp-2′-O-Me-cAMPS (Biolog, Bremen/Germany).

[2] = Degradation Example 7: oxidation with hydrogen peroxide, monitored by HPLC; type: physicochemical; details: for oxidation by peroxide: 5 portions of 30% H2O2; for HPLC Area %: hydrogen peroxide
Procedure: The degradation experiment was monitored by HPLC (RP-18, 15 Vol.-% acetonitrile, 20 mM triethylammonium formate buffer, pH 6.5, 1 ml/min., UV 270 nm) and peak areas were recorded.

protein kinase G I α = target: T1, protein kinase G I α (Homo sapiens, UniProt Q13976); assay: Protein kinase G I alpha activation, phosphotransferyl assay; type: biochemical; details: 10 nM, 100 nM and 1 μM
T1 sequence (Q13976 1-671): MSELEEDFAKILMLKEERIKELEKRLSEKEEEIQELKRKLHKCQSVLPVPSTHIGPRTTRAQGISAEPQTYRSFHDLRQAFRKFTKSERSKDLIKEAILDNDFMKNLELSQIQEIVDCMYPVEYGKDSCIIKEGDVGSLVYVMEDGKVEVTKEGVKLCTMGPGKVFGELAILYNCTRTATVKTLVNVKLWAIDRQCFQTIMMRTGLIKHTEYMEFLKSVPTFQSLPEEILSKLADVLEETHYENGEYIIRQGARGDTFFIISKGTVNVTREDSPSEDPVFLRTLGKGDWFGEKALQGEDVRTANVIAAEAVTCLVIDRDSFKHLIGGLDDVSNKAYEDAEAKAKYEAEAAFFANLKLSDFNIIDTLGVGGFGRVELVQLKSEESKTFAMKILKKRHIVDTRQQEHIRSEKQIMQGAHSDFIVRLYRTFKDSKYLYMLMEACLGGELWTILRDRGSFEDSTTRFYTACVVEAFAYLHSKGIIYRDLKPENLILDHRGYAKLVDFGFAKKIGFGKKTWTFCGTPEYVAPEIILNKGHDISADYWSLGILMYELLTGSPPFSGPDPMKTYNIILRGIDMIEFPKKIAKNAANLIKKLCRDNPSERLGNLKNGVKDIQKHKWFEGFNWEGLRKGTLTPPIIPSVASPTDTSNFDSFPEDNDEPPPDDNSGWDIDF
Description: Next, the activity profile of some cyclic boranophosphates disclosed in this invention has also been investigated on protein kinase G I α (FIGS. 8 and 9). Potential activatory potential towards the enzyme has been determined by a standard phosphotransferyl assay protocol according to Dostmann et al. (Dostmann, W. R.; Nickl, C.; Thiel, S.; Tsigelny, I.; Frank, R.; and Tegge, W. J., Pharmacol. Ther., 82, 373-387 (1999). FIG. 8 depicts the activity (μmol×min^−1×mg^−1) overview of six different cyclic boranophosphate analogues with protein kinase G type I at 10 nM, 100 nM and 1 μM. BLG-9108: […]; BLG-9110: Sp-8-Br-cAMPB; BLG-9111: Rp-8-Br-cAMPB; BLG-9112: Sp-8-Br-cGMPB; BLG-9113: Rp-8-Br-cGMPB; control: cyclic GMP.

PDE IV (A4B) = target: T2, PDE IV (A4B) (Homo sapiens, UniProt P27815); assay: Stability against PDE IV, HPLC; type: in vitro ADME; details: human, Houslay lab), pH 7.2, read-out: half life of hydrolysis
T2 construct: Houslay lab, Glasgow/Scotland (obtained from another laboratory)
Procedure: Next, stability of the disclosed boranophosphates against PDE IV (A4B, Houslay lab, Glasgow/Scotland) was tested in similar experiments as described above.

[3] = Degradation Example 3: oxidation with hydrogen peroxide, monitored by HPLC; type: physicochemical; details: after 90 min. at RT
Procedure: Thus, 0.1 μmol of the Rp-isomer of 8-(4-chlorophenylthio)-2′-O-methyladenosine-3′,5′-cyclic boranophosphate (Rp-8-pCPT-2′-O-Me-cAMPB, example 44), dissolved in 300 μl of water, was treated stepwise with 2 μl portions of 30% aqueous hydrogen peroxide solution (Merck). The oxidation process was monitored again by reversed phase HPLC (RP-18, 30 Vol.-% acetonitrile, 20 mM triethylammonium formate buffer, pH 8.3, 2 ml/min, UV 282 nm). As a control, the corresponding cyclic nucleotide with phosphorothioate modification (Sp-8-pCPT-2′-O-Me-cAMPS, Biolog) was added. In summary, 20 μl peroxide, were applied.

[4] = target: protein kinase A type I alpha holoenzyme (Homo sapiens, UniProt P10644); assay: Standard photometric (Cook) assay with protein kinase A type I alpha holoenzyme; type: biochemical; details: holoenzyme RIα
Description: In a first experiment, the biological activity of the Rp- and Sp-isomer of 8-bromoadenosine-3′,5′-cyclic boranophosphate (examples 1 and 2) has been tested with the holoenzyme of protein kinase A type I alpha (FIGS. 3 and 4) using a standard photometric assay (Cook, P. F.; Neville, M. E., Jr.; Vrana, K. E.; Hartl, F. T. and Roskoski, R., Jr., Biochemistry 21, 5794-5799 (1982)).
As a control, two boranophosphate analogues with a 2′-O-methyl modification (Rp-2′-O-Me-cAMPB and Sp-2′-O-Me-cAMPB, examples 7 & 8) have been tested by the same type of assay with protein kinase A type I alpha as well.
FIG. 5 depicts the activity overview of four different cyclic boranophosphate analogues with protein kinase A type I alpha holoenzyme. 9108: Sp-2′-O-Me-cAMPB; 9109: Rp-2′-O-Me-cAMPB; 9110: Sp-8-Br-cAMPB; 9111: Rp-8-Br-cAMPB; controls: B 001: Rp-8-Br-cAMPS. Control: cAMP. “Cook Assay” with Holoenzyme RIα.

[5] = Degradation Example 5: oxidation with hydrogen peroxide, monitored by HPLC; type: physicochemical; details: after 1 hour at RT
Procedure: Thus, the cyclic boranophosphate 6-chloropurine-1-β-D-ribofuranoside-3′,5′-cyclic boranophosphate, Rp-isomer (Rp-6-Cl-cPuMPB, example 42) together with the corresponding phosphorothioate 6-chloropurine-1-β-D-ribofuranoside-3′,5′-cyclic phosphorothioate, Sp-isomer (Sp-6-Cl-cPuMPS, Biolog) as a control were treated repeatedly with μl doses of 30% aqueous hydrogen peroxide (Merck). During one hour, oxidative degradation was monitored by HPLC (RP-18, 15 Vol.-% acetonitrile, 20 mM triethylammonium formate buffer, pH 6.5, 2 ml/min., UV 263 nm) and corresponding peak areas were recorded, integrated and compared (Tab. 3).

[6] = Degradation Example 1: oxidation with hydrogen peroxide, monitored by HPLC; type: physicochemical; details: after further addition of 10 μl of 30% H2O2, two hours at RT
Description: In order to check out the stability of the boranophosphates described in this invention towards oxidising conditions in comparison to the corresponding phosphorothioates, 0.1 μmol of the sodium salts of each, Rp-8-bromoadenosine-3′,5′-cyclic boranophosphate (Rp-8-Br-cAMPB, example 1), Sp-8-bromoadenosine-3′,5′-cyclic boranophosphate (Sp-8-Br-cAMPB, example 2), Rp-8-bromoadenosine-3′,5′-cyclic phosphorothioate (Rp-8-Br-cAMPS, Biolog) and Sp-8-bromoadenosine-3′,5′-cyclic phosphorothioate (Sp-8-Br-cAMPS, Biolog) were dissolved in 100 μl of eluent and the mixture was analyzed by HPLC (RP-18, 11% acetonitrile, 20 mM triethylammonium formate buffer, pH 6.1, 1.5 ml/min, UV 258 nm). The following elution profile was recorded: Rp-8-Br-cAMPS (5:13 min.)<Sp-8-Br-cAMPS (7:23 min.)<Sp-8-Br-cAMPB (9:13 min.)<Rp-8-Br-cAMPB ([…].).
Subsequently, aqueous hydrogen peroxide (Merck) was added in small portions while the stability of the four compounds was permanently monitored over time.
10 μl of H2O2 (0.3%) as well as 10 μl of 3% H2O2 were added to no effect.

protein kinase A type I alpha holoenzyme, sequence (P10644 whole entry): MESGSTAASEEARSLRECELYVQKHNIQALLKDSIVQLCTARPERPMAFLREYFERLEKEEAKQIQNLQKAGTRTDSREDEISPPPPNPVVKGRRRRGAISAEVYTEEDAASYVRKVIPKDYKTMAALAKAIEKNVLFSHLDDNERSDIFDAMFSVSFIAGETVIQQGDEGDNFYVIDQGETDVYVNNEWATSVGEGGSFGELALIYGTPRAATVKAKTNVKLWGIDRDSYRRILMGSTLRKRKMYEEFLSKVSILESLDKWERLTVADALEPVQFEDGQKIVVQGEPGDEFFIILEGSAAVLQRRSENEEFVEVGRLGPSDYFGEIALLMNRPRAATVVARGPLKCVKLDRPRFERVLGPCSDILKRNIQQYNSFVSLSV
T2 sequence (P27815 whole entry): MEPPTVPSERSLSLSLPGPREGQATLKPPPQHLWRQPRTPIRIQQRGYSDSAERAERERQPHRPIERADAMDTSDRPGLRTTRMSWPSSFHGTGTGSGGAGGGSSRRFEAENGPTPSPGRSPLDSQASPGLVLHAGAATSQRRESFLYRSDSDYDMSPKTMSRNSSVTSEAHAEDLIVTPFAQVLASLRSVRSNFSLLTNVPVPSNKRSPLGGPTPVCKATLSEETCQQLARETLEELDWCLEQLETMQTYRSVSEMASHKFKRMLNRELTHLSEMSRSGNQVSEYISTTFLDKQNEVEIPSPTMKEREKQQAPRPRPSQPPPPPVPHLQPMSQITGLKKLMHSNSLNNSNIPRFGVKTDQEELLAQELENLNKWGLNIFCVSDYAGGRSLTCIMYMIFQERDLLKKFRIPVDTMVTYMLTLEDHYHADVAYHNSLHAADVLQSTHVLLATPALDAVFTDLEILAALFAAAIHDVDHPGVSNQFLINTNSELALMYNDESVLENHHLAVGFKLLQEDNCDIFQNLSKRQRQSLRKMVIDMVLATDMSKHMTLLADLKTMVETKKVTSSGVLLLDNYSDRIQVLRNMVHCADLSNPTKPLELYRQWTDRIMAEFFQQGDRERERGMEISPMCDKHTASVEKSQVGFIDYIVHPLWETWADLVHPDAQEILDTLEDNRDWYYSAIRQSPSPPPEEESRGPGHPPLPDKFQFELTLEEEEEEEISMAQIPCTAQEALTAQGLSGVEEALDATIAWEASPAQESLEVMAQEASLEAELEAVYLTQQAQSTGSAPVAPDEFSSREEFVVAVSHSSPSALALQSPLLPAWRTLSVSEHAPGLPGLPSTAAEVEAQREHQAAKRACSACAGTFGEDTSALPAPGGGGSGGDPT

With `B[PH]1(O)OC[C@H]2O[C@@H](n3c(Sc4ccc(Cl)cc4)nc4c(N)ncnc43)C(O)[C@@H]2O1` (stereo partly drawn) [Rp-8-pCPT-cAMPB, 8-(4-Chlorophenylthio)adenosine-3′,5′-cyclic boranophosphate, Rp-isomer] the “HPLC Area %” value ([1]; Time 0.00 h) was 100%, the “HPLC Area %” value ([1]; Time 0.50 h) was 87.51% and the “HPLC Area %” value ([1]; Time 1.00 h) was 82.89%. For the same compound, the “HPLC Area %” value ([1]; Time 1.50 h, RT) was 79% and 79.25% and the “HPLC Area %” value ([1]; Time 18.00 h) was 30% and 29.56%.
For `COC1C2OP(O)(=S)OCC2OC1n1cnc2c(N)ncnc21` (stereo not drawn) [Sp-2′-O-Me-cAMPS, reference compound], the “half life of degradation” value (PDE 1 from bovine heart) was 30 h.
For `Nc1ccn([C@@H]2O[C@@H]3COP(O)(=S)O[C@H]3[C@H]2O)c(=O)n1` (single isomer, unassigned) [Sp-cCMPS, cytidine-3′,5′-cyclic phosphorothioate, Sp-isomer, reference compound], the “oxidation by peroxide” value [2] was “rapidly oxidized”, the “HPLC Area %” value ([2]; Time 0 min) was 100% and the “HPLC Area %” value ([2]; Time 10 min) was 94%. For the same compound, the “HPLC Area %” value ([2]; Time 20 min) was 85%, the “HPLC Area %” value ([2]; Time 34 min) was 69% and the “HPLC Area %” value ([2]; Time 65 min) was 46%. The “HPLC Area %” value ([2]; Time 81 min) was 23%, the “HPLC Area %” value ([2]; Time 92 min) was 14% and the “HPLC Area %” value ([2]; Time 98 min) was 13%.
For “8-Bromoguanosine-3′,5′-cyclic boranophosphate, Rp-isomer [Rp-8-Br-cGMPB]”, the “activation of protein kinase G” value (protein kinase G I α) was “activated the kinase”.
With `Nc1ncnc2c1nc(Sc1ccc(Cl)cc1)n2[C@@H]1O[C@@H]2COP([O-])(=S)O[C@H]2[C@H]1O.[Na+]` (stereo partly drawn) [Sp-8-pCPT-cAMPS, reference compound] the “HPLC Area %” value ([1]; Time 0.00 h) was 100%, the “HPLC Area %” value ([1]; Time 0.50 h) was 81.7% and the “HPLC Area %” value ([1]; Time 1.00 h) was 57.47%. The “HPLC Area %” value ([1]; Time 1.50 h, RT) was 45.71%, the “HPLC Area %” value ([1]; Time 18.00 h) was “completely vanished” and the “HPLC Area %” value ([1]; Time 18.00 h, listed as Sp-8-pCPT-CAMPS) was 0%. The degraded ([1]; after 1.5 hours at RT) was “more than 50%”.
In the case of `Nc1ncnc2c1ncn2[C@@H]1O[C@@H]2COP(=O)(O)O[C@H]2[C@H]1O` [cAMP, cyclic adenosine-3′,5′-monophosphate, reference compound], the half-life (PDE IV (A4B)) is reported as 5 min.
For `B[PH]1(O)OC[C@H]2O[C@@H](n3c(Sc4ccc(Cl)cc4)nc4c(N)ncnc43)C(OC)[C@@H]2O1` (stereo partly drawn) [Rp-8-pCPT-2′-O-Me-cAMPB, 8-(4-Chlorophenylthio)-2′-O-methyladenosine-3′,5′-cyclic boranophosphate, Rp-isomer], the “peak area, % of the original area” value [3] was 50%.
For “2′-O-Methyladenosine-3′,5′-cyclic boranophosphate, Sp-isomer [Sp-2′-O-Me-cAMPB]”, the “effect on protein kinase A type I alpha holoenzyme” value [4] was “neither Rp- nor Sp-2′-O-Me-cAMPB did modulate the kinase in any way”.
For “6-Chloropurine-1-β-D-ribofuranoside-3′,5′-cyclic boranophosphate, Rp-isomer [Rp-6-Cl-cPuMPB]”, the “peak area, % of the original area” value [5] was 93%.
In the case of `B[PH]1(O)OC[C@H]2O[C@@H](n3ccc(N)nc3=O)C(O)[C@@H]2O1` (stereo partly drawn) [Rp-cCMPB, Cytidine-3′,5′-cyclic boranophosphate, Rp-isomer], the “oxidation by peroxide” value [2] is reported as “considerably higher resistance”, the “HPLC Area %” value ([2]; Time 0 min) is reported as 100% and the “HPLC Area %” value ([2]; Time 10 min) is reported as 99%. The “HPLC Area %” value ([2]; Time 20 min) was 98%, the “HPLC Area %” value ([2]; Time 34 min) was 96% and the “HPLC Area %” value ([2]; Time 65 min) was 91%. For the same compound, the “HPLC Area %” value ([2]; Time 81 min) was 84%, the “HPLC Area %” value ([2]; Time 92 min) was 78% and the “HPLC Area %” value ([2]; Time 98 min) was 79%.
In the case of `Nc1ncnc2c1nc(Br)n2C1OC2COP(O)(=S)OC2C1O` (stereo not drawn) [Rp-8-Br-cAMPS, Rp-8-bromoadenosine-3′,5′-cyclic phosphorothioate, reference compound], the “HPLC signal after oxidation” value [6] is reported as “completely vanished”.
For `O[C@@H]1[C@@H]2OP(O)(=S)OC[C@H]2O[C@H]1n1cnc2c(Cl)ncnc21` (single isomer, unassigned) [Sp-6-Cl-cPuMPS, 6-chloropurine-1-β-D-ribofuranoside-3′,5′-cyclic phosphorothioate, Sp-isomer, reference compound], the degraded [5] was 37%.
In the case of `CO[C@H]1C2OP(O)(=S)OC[C@H]2O[C@H]1n1c(Sc2ccc(Cl)cc2)nc2c(N)ncnc21` (stereo partly drawn) [Sp-8-pCPT-2′-O-Me-cAMPS, reference compound], the “peak area, % of the original area” value [3] is reported as “completely degraded”.
